Consider 13 compounds from patent US5563164A, “Phospholipase A2 inhibitors” (Eli Lilly and Company, priority 1995, dated 1996).

In one data set the test system is neuronal cells.
Test: not given
As to conditions: Neurobiology of Aging 1992; cited from earlier work.
For the compound “β-amyloid peptide: 4500 Dalton protein, major constituent of amyloid plaque cores; in its longest forms 42 or 43 amino acid residues”, the “direct toxicity (other research groups)” value is listed as “unable to consistently demonstrate direct toxicity”.

Staying with this data set, now noted: in vitro and in vivo; B. A. Yankner 1989; cited from earlier work.
For “β-amyloid peptide: 4500 Dalton protein, major constituent of amyloid plaque cores; in its longest forms 42 or 43 amino acid residues”, the neurotoxicity entry was “neurotoxic in vitro and in vivo”.

In another data set the target is T1, Human Cytosolic PLA2 (Homo sapiens, UniProt P47712).
T1 sequence (P47712 1-749): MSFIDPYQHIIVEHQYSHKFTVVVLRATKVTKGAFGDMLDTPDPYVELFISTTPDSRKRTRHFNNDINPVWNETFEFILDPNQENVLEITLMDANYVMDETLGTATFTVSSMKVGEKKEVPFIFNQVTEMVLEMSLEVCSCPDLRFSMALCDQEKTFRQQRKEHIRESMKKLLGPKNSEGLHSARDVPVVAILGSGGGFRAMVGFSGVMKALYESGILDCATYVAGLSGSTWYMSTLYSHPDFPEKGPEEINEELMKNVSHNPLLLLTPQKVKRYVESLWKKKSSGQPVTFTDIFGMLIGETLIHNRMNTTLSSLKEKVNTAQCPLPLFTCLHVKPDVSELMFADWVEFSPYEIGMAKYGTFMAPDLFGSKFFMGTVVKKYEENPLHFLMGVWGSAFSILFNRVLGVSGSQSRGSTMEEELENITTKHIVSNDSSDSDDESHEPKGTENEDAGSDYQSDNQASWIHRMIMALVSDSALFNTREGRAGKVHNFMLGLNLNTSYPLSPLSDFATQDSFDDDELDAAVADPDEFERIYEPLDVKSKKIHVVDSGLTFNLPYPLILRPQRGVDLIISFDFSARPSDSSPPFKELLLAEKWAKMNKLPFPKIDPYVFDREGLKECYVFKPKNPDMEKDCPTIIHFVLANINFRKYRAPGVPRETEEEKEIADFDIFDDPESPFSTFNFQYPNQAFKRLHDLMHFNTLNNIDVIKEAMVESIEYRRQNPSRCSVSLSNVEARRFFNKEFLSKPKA
The data set can be described thus: Inhibition of Cytosolic Phospholipase A2 (in vitro, [14C]PC/DG sonicated liposomes). It counts as biochemical. As to conditions: 37° C., 15 minutes, pH 7.5, 1 mM calcium chloride. How it is done: The biological activity of the compounds of Formula I was evaluated employing an in vitro assay measuring the ability of these compounds to inhibit the activity of cytosolic phospholipase A2. The assay was performed essentially as described in R. Kramer, et al., Journal of Biological Chemistry, 266:5268-5272 (1991) with the exception that varying amounts of the compound of Formula I were added to the reaction mixture.
The substrate, sonicated liposomes containing 1-palmitoyl-2[^14 C ]arachidonoyl-sn-glycero-3-phosphocholine ([^14 C]PC, 55 mCi/mmole from NEN Research Products) and sn-1,2-dioleoylglycerol (DG, Avanti Polar Lipids, Birmingham, Ala.) at a molar ratio of 2:1, was prepared as follows. [^14 C]PC (20 nmol, 1×10^6 dpm, 50 μg/ml in toluene/ethanol) and DG (10 nmol, 100 μg/ml in chloroform) were dried under nitrogen. The lipids were dispersed in 1 ml of 150 mM sodium chloride, 50 mM HEPES, pH 7.5 (assay buffer) by sonication at 4° C. with a Microson™ probe-sonicator (Heat Systems Ultrasonics) for 4×15 seconds, with 45 second intervals. Bovine serum albumin (essentially fatty acid free, from a 100 mg/ml stock in water, Sigma) was added to a final concentration of 4 mg/ml. Samples to be assayed for cPLA2 activity were incubated with 50 μl liposomes (0.5 nmol [^14 C]PC, 50,000 dpm containing 0.25 nmol of DG) and varying amounts of the compound of Formula I, in a total volume of 0.2 ml of assay buffer containing 1 mM calcium chloride and 1 mM 2-mercaptoethanol. Incubations were carried out at 37° C. for 15 minutes and terminated by adding 2 ml of Dole's reagent (2-propanol/heptane/0.5 M sulfuric acid, 40:10:1 containing 10 μg/ml of stearic acid).
After mixing, 1.2 ml of heptane and 1 ml of water were added. The mixtures were briefly vortexed and the upper phase transferred to tubes containing 2 ml of heptane and 150 mg of Bio-Sil (Bio-Rad Laboratories) activated at 130° C. before use. The tubes were thoroughly vortexed and centrifuged (1000×g for 5 minutes). The supernatants were decanted into scintillation vials. After addition of 10 ml of a liquid scintillation cocktail (Ready Protein®, Beckman) radioactivity was counted using a Beckman liquid scintillation counter Model LS 7000. High radioactive counts correlate with enzymatic activity.
The first column provides the example number of the test inhibitor. The second column provides the concentration of the test compound (in micromolar quantities) which inhibits fifty percent of the activity of cytosolic phospholipase A2.
`CCCc1c(OCCCOc2cc(O)c(-c3ccc(F)cc3)cc2CC)ccc2c1OC(C(=O)O)CC2` (centres unmarked) [Example 6, 8-Propyl-7-[3-[4-(4-fluorophenyl)-2-ethyl-5-hydroxyphenoxy]propoxy]-3,4-dihydro-2H-1-benzopyran-2-carboxylic acid]: the IC50 is 9 µM. The same measure, in the same setting: the value for `CCc1cc(-c2ccc(F)cc2)c(O)cc1OCCCOc1ccccc1CCC(=O)NS(=O)(=O)c1ccccc1` [Example 3, N-Phenylsulfonyl-3-(2-(3-(2-ethyl-4-(4-fluorophenyl)-5-hydroxyphenoxy)propoxy)phenyl)propionamide] was 17 µM; that for `CCCc1c(OCCCOc2cc(O)c(C(C)=O)cc2CC)ccc2c1OC(C(=O)O)CC2` (centres unmarked) [Example 13, 7-[3-(4-acetyl-2-ethyl-5-hydroxyphenoxy)propoxy]-3,4-dihydro-8-propyl-2H-1-benzopyran-2-carboxylic acid] was 13 µM.

Turning to `CCc1cc(C(C)=O)c(O)cc1OCCCCCC(C)(C)c1nn[nH]n1` [Example 10, 1-[5-ethyl-2-hydroxy-4-[[6-methyl-6-(1H-tetrazol-5-yl)heptyl]oxy]phenyl]ethanone], the half-inhibitory concentration (IC50) came out at 43 µM. Same read-out and setting: next, `CCCc1c(OCCCOc2cc(O)c(C(C)=O)cc2CC)cccc1OC(CC)C(=O)O` (centres unmarked) [Example 14, 2-[3-[3-(4-acetyl-2-ethyl-5-hydroxyphenoxy)-propoxy)-2-propylphenoxy]butanoic acid]: 14 µM; `CCCc1c(OCCCOc2cc(O)c(-c3ccccc3)cc2CC)cccc1OC(C)C(=O)O` (centres unmarked) [Example 5, 2-[3-[3-[(5-Ethyl-2-hydroxy[1, 1'-biphenyl]-4-yl)oxy]propoxy]-2-propylphenoxy]propanoic acid]: 12 µM; `CCCc1c(OCCCOc2cc(O)c(OCC)cc2CC)ccc2c1OC(C(=O)O)CC2` (centres unmarked) [Example 12, 3,4-dihydro-8-propyl-7-[3-(2-ethyl-5-hydroxy-4-ethoxy-phenoxy)propoxy]-2H-1-benzopyran-2-carboxylic acid]: 28 µM. The same measure, in the same setting: the value for `CCc1cc(-c2ccccc2)c(O)cc1OCCCCCC(C)(C)c1nn[nH]n1` [Example 4, 2-phenyl-4-ethyl-5-[[6-(2H-tetrazol-5-yl)-6-methylheptyl]oxy]phenol] was 39.4 µM; that for `CCCc1c(OCCCOc2cc(O)c(-c3ccc(F)cc3)cc2CC)cccc1Oc1ccccc1C(=O)O` [Example 8, 2-[2-Propyl-3-[3-[2-ethyl-4-(4-fluorophenyl)-5-hydroxyphenoxy]propoxy]phenoxy]benzoic acid] was 12 µM. Turning to `CCc1cc(CC)c(OCCCCCC(C)(C)c2nn[nH]n2)cc1O` [Example 11, 2,4-diethyl-5-[[6-methyl-6-(1H-tetrazol-5yl)heptyl]oxy]phenol], the 50% inhibitory concentration (IC50) was found to be 54 µM. Regarding `CCc1cc(-c2ccc(F)cc2)c(O)cc1OCCCOc1ccccc1CCC(=O)NS(C)(=O)=O` [Example 2, N-Methanesulfonyl-3-(2-(3-(2-ethyl-4-(4-fluorophenyl)-5-hydroxyphenoxy)propoxy)phenyl)propionamide], the IC50 worked out at 18 µM.

As for `CCc1cc(-c2ccc(F)cc2)c(O)cc1OCCCCOc1ccccc1CCC(=O)O` [Example 9, 3-(2-(4-(2-Ethyl-4-(4-fluorophenyl)-5-hydroxyphenoxy)-5-butyloxy)phenyl)propionic acid], the IC50 turned out to be 35 µM.
